In patent US11213509B2, “Compositions and methods for treating traumatic brain injury” (Ischemix, LLC, priority 2017, dated 2022):

Tests used:
[1] = system: fluid percussion model of diffused traumatic brain injury (TBI) in rats; assay: Limb placing test, fluid percussion model of diffused TBI; format: in vivo, rat; conditions: vs vehicle, p<0.001, starting 1 day following TBI
Description: On the day before TBI surgery (Day −1), rats were anesthetized with 3% isoflurane in a mixture of nitrous oxide and oxygen (2:1) for induction of anesthesia and then maintained at 1-3% isoflurane in a mixture of nitrous oxide and oxygen (2:1). The surgical site skin was shaved, and the rat was then placed in a stereotaxic frame. Buprenorphine SR, s.c, (0.9-1.2 mg/kg Zoopharm: Lot: BSR1-142111) and Cefazolin, i.p., (40-50 mg/kg; Hospira: Lot: 101D032) was given at this time. The skull was exposed through a midline incision. A parasagittal craniotomy (5 mm) using a trephine drill was performed at 1 mm posterior to bregma and 1 mm lateral to the midline (outer circumference). A sterile plastic injury tube (the plastic connector hub of a sterile needle cut 1 cm in length and trimmed to fill the craniotomy securely) was placed over the exposed dura and bonded by super glue to the skull. Dental cement was then poured around the injury tube to obtain a complete seal. After the dental cement had hardened, the injury tube was filled with sterile saline and the skin was closed by surgical clips. The animals were then returned to a clean home cage after recovery from the anesthesia.
(§1) On the day of TBI surgery (Day 0), rats were re-anesthetized with 3% isoflurane in a mixture of nitrous oxide and oxygen (2:1), intubated, connected to a respirator and ventilated with 1-2% isoflurane in a mixture of nitrous oxide and oxygen (2:1). […] The amplitude of the resulting pressure pulse was measured in atmospheres by a pressure transducer. […]
(§2) Dosing solutions were prepared in a blinded fashion with H, I, M, O and Z labels ready to use. […]
Limb placing tests were divided into both forelimb and hindlimb tests. For the forelimb-placing test, the examiner held the rat close to a tabletop and scored the rat's ability to place the forelimb on the tabletop in response to whisker, visual, tactile, or proprioceptive stimulation. For the hindlimb placing test, the examiner assessed the rat's ability to place the hindlimb on the tabletop in response to tactile and proprioceptive stimulation. […]

[2] = system: fluid percussion model of diffused traumatic brain injury (TBI) in rats; assay: Body swing test, fluid percussion model of diffused TBI; format: in vivo, rat; conditions: 45 mg/kg i.v. at 30 minutes and 24 hours after TBI; Day 28; vs vehicle, p<0.05
Description: On the day before TBI surgery (Day −1), rats were anesthetized with 3% isoflurane in a mixture of nitrous oxide and oxygen (2:1) for induction of anesthesia and then maintained at 1-3% isoflurane in a mixture of nitrous oxide and oxygen (2:1). The surgical site skin was shaved, and the rat was then placed in a stereotaxic frame. Buprenorphine SR, s.c, (0.9-1.2 mg/kg Zoopharm: Lot: BSR1-142111) and Cefazolin, i.p., (40-50 mg/kg; Hospira: Lot: 101D032) was given at this time. The skull was exposed through a midline incision. A parasagittal craniotomy (5 mm) using a trephine drill was performed at 1 mm posterior to bregma and 1 mm lateral to the midline (outer circumference). […]
as §1, §2
The rat was held approximately one inch from the base of its tail. […] A swing was recorded whenever the rat moved its head out of the vertical axis to either side. The rat must have returned to the vertical position for the next swing to be counted. Thirty (30) total swings were counted. […]

protein carboxylation = assay: Protein carboxylation by ELISA, focal TBI model in piglets; format: in vivo; conditions: cortical penumbra, ipsilateral; vs placebo, p<0.01
Description: Study Design: A blinded, placebo controlled proof of concept trial of CMX-2043 was conducted in four-week-old piglets (8-10 kg). […] Sixteen piglets (n=16) were designated into three cohorts: 1) Controlled cortical impact (CCI) at the rostral gyrus treated with a bolus of CMX-2043 (n=5), 2) CCI injured animals treated with placebo (n=5) and 3) sham animals (n=6). CMX-2043 treated animals received an intravenous loading bolus of CMX-2043 (13.4 mg/kg) 1 hour post-TBI and a 4.5 mg/kg bolus at 13 hours post-TBI. Subjects were intubated, ventilated and anesthesia maintained on isoflurane (1.0%). Buprenorphine (0.02 mg/kg IM) was administered for analgesia immediately following intubation. Monitors recorded oxygen saturation, heart rate, respiration rate, rectal temperature, and end tidal CO2. […] All piglets were sacrificed between 24-25 hours post-TBI.
Samples from the same ipsilateral region that were analyzed for mtROS were analyzed for oxidative damage by measuring protein carboxylation (VWR Int'l), and compared to placebo and shams.

Structure (SMILES): CC(NC(=O)C(CCC(=O)O)NC(=O)CCCCC1CCSS1)C(=O)O [CMX-2043, N—(R)-lipoyl-glutamylalanine]
- Limb placing test recovery ([1]; 15 mg/kg i.v. at 30 minutes and 24 hours after TBI): superior recovery compared to vehicle-treated animals
- Limb placing test recovery ([1]; 30 mg/kg i.v. at 30 minutes and 24 hours after TBI): superior recovery compared to vehicle-treated animals
- Limb placing test recovery ([1]; 45 mg/kg i.v. at 30 minutes and 24 hours after TBI): superior recovery compared to vehicle-treated animals
- Body swing test recovery [2]: superior recovery compared to vehicle-treated animals
- Protein carboxylation (ELISA) (protein carboxylation): significant reduction in protein carboxylation
